Consider 4 compounds from publication PMC4148164 (Journal of Medicinal Chemistry, 2014).

For data set [1] the following is noted: in biological milieu; estimated; cited from earlier work.
Data set [2] relates to precontracted bovine coronary artery rings. In words: Vasorelaxation of U46619-precontracted bovine coronary artery rings. It is filed as cell-based. The conditions noted are these: for fold more potent than 14,15-EET as vasorelaxant (ED50): ratio of ED50 versus 14,15-EET.

As to `CCCCCC1OC1C/C=C\C/C=C\C/C=C\CCCC(=O)O` (stereo not shown) [14,15-EET, 14,15-epoxyeicosa-5(Z),8(Z),11(Z)-trienoic acid], the half-life result in data set [1] is “no more than seconds to minutes”. Take `CCCCCNC(=O)NCCCC/C=C\CCCCCNS(=O)(=O)c1ccccc1` [Compd 9]: the “improvement in the EC50 by a factor (versus parent free acid)” value in data set [2] (vasorelaxation EC50 compared with parent free acid) is approximately 2. `CCCCCNC(=O)NCCCC/C=C\CCCCCCc1nnn[nH]1` [Compd 19, 1-(12-(1H-Tetrazol-5-yl)dodec-5(Z)-en-1-yl)-3-pentylurea]: in data set [2], the “fold more potent than 14,15-EET as vasorelaxant (ED50)” value was found to be 12 fold.

Take “N1-Butyl-N2-(12-(2-oxido-3H-1,2,3,5-oxathiadiazol-4-yl)dodec-5(Z)-en-1-yl)oxalamide [Compd 25]”: in data set [2], the “fold more potent than 14,15-EET as vasorelaxant (ED50)” value came out at 6 fold.
